What was measured:
[1] = test system: Monochoria vaginalis, Presl.; assay: Preemergence weed control under flooded paddy conditions, MOOVA (Monochoria); type: in vivo; conditions: flooded paddy, rated three to four weeks after treatment; as to herbicidal effect rating, MOOVA: meaning of each grade not given here
[2] = test system: Cyperus serotinus, Rottb.; assay: Preemergence weed control under flooded paddy conditions, CYPSE (Flatsedge); type: in vivo; conditions: rated three to four weeks after treatment; as to herbicidal effect rating, CYPSE: meaning of each grade not given here
[3] = test system: Oryza sativa, (L.) Tebonnet; assay: Rice tolerance to post-transplant applications under flooded paddy conditions (Example 187), ORYSAT (Rice, Tebonnet); conditions: rated three to four weeks after treatment; as to herbicidal effect rating ORYSAT: meaning of each grade not given here
[4] = test system: Echinochloa oryzoides (Ard.) Fritsch.; assay: Preemergence weed control under flooded paddy conditions, ECHORC (Watergrass (Calif.)); type: in vivo; conditions: flooded paddy, rated three to four weeks after treatment; as to herbicidal effect rating, ECHORC: meaning of each grade not given here
[5] = test system: Sagittaria pygmaea, L.; assay: Preemergence weed control under flooded paddy conditions, SAGPY (Arrowhead (Pygmaea)); type: in vivo; conditions: flooded paddy, rated three to four weeks after treatment; as to herbicidal effect rating, SAGPY: meaning of each grade not given here
[6] = test system: Cyperus iria; assay: Preemergence weed control under flooded paddy conditions, CYPIR (Rice Flatsedge); type: in vivo; conditions: flooded paddy, rated three to four weeks after treatment; as to herbicidal effect rating, CYPIR: meaning of each grade not given here
[7] = Rate 0.0320 kg/ha, preemergence
[8] = Rate 0.0620 kg/ha, preemergence
[9] = Rate 0.1250 kg/ha, preemergence
[10] = Rate 0.2500 kg/ha, preemergence
[11] = Rate 0.0320 kg/ha, preemergence weeds
[12] = Rate 0.0620 kg/ha, preemergence weeds
[13] = Rate 0.1250 kg/ha, preemergence weeds
[14] = Rate 0.2500 kg/ha, preemergence weeds

SMILES: COC(C)c1nsc2ccc(-n3c(=O)cc(C(F)(F)F)n(C)c3=O)cc12 (stereo not drawn) [Example 350, 2,4(1H,3H)-Pyrimidinedione, 3-[3-(1-methoxyethyl)-1,2-benzisothiazol-5-yl]-1-methyl-6-(trifluoromethyl)-]
- herbicidal effect rating, MOOVA [1, 7]: 9.0
- herbicidal effect rating, MOOVA [1, 8]: 9.0
- herbicidal effect rating, MOOVA [1, 9]: 9.0
- herbicidal effect rating, MOOVA [1, 10]: 9.0
- herbicidal effect rating, CYPSE [2, 7]: 7.5
- herbicidal effect rating, CYPSE [2, 8]: 8.5
- herbicidal effect rating, CYPSE [2, 9]: 8.5
- herbicidal effect rating, CYPSE [2, 10]: 9.0
- herbicidal effect rating ORYSAT ([3]; Rate 0.0320 kg/ha): 9.0
- herbicidal effect rating ORYSAT ([3]; Rate 0.0620 kg/ha): 9.0
- herbicidal effect rating ORYSAT ([3]; Rate 0.1250 kg/ha): 9.0
- herbicidal effect rating ORYSAT ([3]; Rate 0.2500 kg/ha): 9.0
- herbicidal effect rating, ECHORC [4, 7]: 6.0
- herbicidal effect rating, ECHORC [4, 8]: 7.5
- herbicidal effect rating, ECHORC [4, 9]: 8.0
- herbicidal effect rating, ECHORC [4, 10]: 9.0
- herbicidal effect rating, SAGPY [5, 7]: 5.5
- herbicidal effect rating, SAGPY [5, 8]: 7.0
- herbicidal effect rating, SAGPY [5, 9]: 7.5
- herbicidal effect rating, SAGPY [5, 10]: 9.0
- herbicidal effect rating, CYPIR [6, 7]: 4.0
- herbicidal effect rating, CYPIR [6, 8]: 5.0
- herbicidal effect rating, CYPIR [6, 9]: 9.0
- herbicidal effect rating, CYPIR [6, 10]: 9.0

SMILES: CN(O)C(=O)COc1ccccc1-c1nsc2ccc(-n3c(=O)cc(C(F)(F)F)n(C)c3=O)cc12 [Example 336, Acetohydroxamic acid, 2-{o-{5-[3,6-dihydro-3-methyl-2,6-dioxo-4-(trifluoromethyl)-1(2H)-pyrimidinyl]-1,2-benzisothiazol-3-yl}phenoxy}-N-methyl-]
- herbicidal effect rating, MOOVA [1, 11]: 9.0
- herbicidal effect rating, MOOVA [1, 12]: 9.0
- herbicidal effect rating, MOOVA [1, 13]: 9.0
- herbicidal effect rating, MOOVA [1, 14]: 9.0
- herbicidal effect rating, CYPSE [2, 11]: 0.0
- herbicidal effect rating, CYPSE [2, 12]: 0.0
- herbicidal effect rating, CYPSE [2, 13]: 2.0
- herbicidal effect rating, CYPSE [2, 14]: 3.0
- herbicidal effect rating ORYSAT ([3]; Rate 0.0320 kg/ha): 2.0
- herbicidal effect rating ORYSAT ([3]; Rate 0.0620 kg/ha): 4.5
- herbicidal effect rating ORYSAT ([3]; Rate 0.1250 kg/ha): 4.5
- herbicidal effect rating ORYSAT ([3]; Rate 0.2500 kg/ha): 9.0
- herbicidal effect rating, ECHORC [4, 11]: 6.5
- herbicidal effect rating, ECHORC [4, 12]: 9.0
- herbicidal effect rating, ECHORC [4, 13]: 9.0
- herbicidal effect rating, ECHORC [4, 14]: 9.0
- herbicidal effect rating, SAGPY [5, 11]: 0.0
- herbicidal effect rating, SAGPY [5, 12]: 0.0
- herbicidal effect rating, SAGPY [5, 13]: 1.0
- herbicidal effect rating, SAGPY [5, 14]: 9.0
- herbicidal effect rating, CYPIR [6, 11]: 0.0
- herbicidal effect rating, CYPIR [6, 12]: 1.0
- herbicidal effect rating, CYPIR [6, 13]: 4.0
- herbicidal effect rating, CYPIR [6, 14]: 9.0

SMILES: Cn1c(C(F)(F)F)cc(=O)n(-c2ccc3snc(COCc4ccc(Cl)c(Cl)c4)c3c2)c1=O [Example 586, 2,4(1H,3H)-Pyrimidinedione, 3-{3-{[(3,4-dichlorobenzyl)oxy]methyl}-1,2-benzisothiazol-5-yl}-1-methyl-6-(trifluoromethyl)-]
- herbicidal effect rating, MOOVA [1, 7]: 9.0
- herbicidal effect rating, MOOVA [1, 8]: 6.5
- herbicidal effect rating, MOOVA [1, 9]: 9.0
- herbicidal effect rating, MOOVA [1, 10]: 9.0
- herbicidal effect rating, CYPSE [2, 7]: 0.0
- herbicidal effect rating, CYPSE [2, 8]: 0.0
- herbicidal effect rating, CYPSE [2, 9]: 4.5
- herbicidal effect rating, CYPSE [2, 10]: 4.5
- herbicidal effect rating ORYSAT ([3]; Rate 0.0320 kg/ha): 1.0
- herbicidal effect rating ORYSAT ([3]; Rate 0.0620 kg/ha): 2.0
- herbicidal effect rating ORYSAT ([3]; Rate 0.1250 kg/ha): 2.0
- herbicidal effect rating ORYSAT ([3]; Rate 0.2500 kg/ha): 2.0
- herbicidal effect rating, ECHORC [4, 7]: 8.0
- herbicidal effect rating, ECHORC [4, 8]: 9.0
- herbicidal effect rating, ECHORC [4, 9]: 9.0
- herbicidal effect rating, ECHORC [4, 10]: 9.0
- herbicidal effect rating, SAGPY [5, 7]: 0.0
- herbicidal effect rating, SAGPY [5, 8]: 0.0
- herbicidal effect rating, SAGPY [5, 9]: 0.0
- herbicidal effect rating, SAGPY [5, 10]: 0.0
- herbicidal effect rating, CYPIR [6, 7]: 8.0
- herbicidal effect rating, CYPIR [6, 8]: 8.5
- herbicidal effect rating, CYPIR [6, 9]: 9.0
- herbicidal effect rating, CYPIR [6, 10]: 9.0

SMILES: Cn1c(C(F)(F)F)cc(=O)n(-c2ccc3snc(-c4ccccc4OCC(=O)NS(C)(=O)=O)c3c2)c1=O [Example 268, Acetamide, 2-{o-{5-[3,6-dihydro-3-methyl-2,6-dioxo-4-(trifluoromethyl)-1(2H)-pyrimidinyl]-1,2-benzisothiazol-3-yl}phenoxy}-N-(methylsulfonyl)-]
- MOOVA herbicidal effect rating [1, 7]: 7.5
- MOOVA herbicidal effect rating [1, 8]: 9.0
- MOOVA herbicidal effect rating [1, 9]: 9.0
- MOOVA herbicidal effect rating [1, 10]: 9.0
- CYPSE herbicidal effect rating [2, 7]: 1.0
- CYPSE herbicidal effect rating [2, 8]: 5.5
- CYPSE herbicidal effect rating [2, 9]: 9.0
- CYPSE herbicidal effect rating [2, 10]: 9.0
- ORYSAT herbicidal effect rating ([3]; Rate 0.0320 kg/ha): 3.5
- ORYSAT herbicidal effect rating ([3]; Rate 0.0620 kg/ha): 4.0
- ORYSAT herbicidal effect rating ([3]; Rate 0.1250 kg/ha): 5.0
- ORYSAT herbicidal effect rating ([3]; Rate 0.2500 kg/ha): 7.5
- ECHORC herbicidal effect rating [4, 7]: 1.0
- ECHORC herbicidal effect rating [4, 8]: 3.0
- ECHORC herbicidal effect rating [4, 9]: 4.5
- ECHORC herbicidal effect rating [4, 10]: 4.5
- SAGPY herbicidal effect rating [5, 7]: 0.0
- SAGPY herbicidal effect rating [5, 8]: 1.0
- SAGPY herbicidal effect rating [5, 9]: 1.0
- SAGPY herbicidal effect rating [5, 10]: 4.0
- CYPIR herbicidal effect rating [6, 7]: 1.0
- CYPIR herbicidal effect rating [6, 8]: 3.0
- CYPIR herbicidal effect rating [6, 9]: 6.0
- CYPIR herbicidal effect rating [6, 10]: 7.5

SMILES: Cc1ccc(OCC(=O)OC(C)(C)C)c(-c2noc3ccc(-n4c(=O)cc(C(F)(F)F)n(C)c4=O)c(Cl)c23)c1 [Example 265, Acetic acid, {{2-{4-chloro-5-[3,6-dihydro-3-methyl-2,6-dioxo-4-(trifluoromethyl)-1(2H)-pyrimidinyl]-1,2-benzisoxazol-3-yl}-p-tolyl}oxy}-, tert-butyl ester]
- MOOVA herbicidal effect rating [1, 7]: 9.0
- MOOVA herbicidal effect rating [1, 8]: 9.0
- MOOVA herbicidal effect rating [1, 9]: 9.0
- MOOVA herbicidal effect rating [1, 10]: 9.0
- CYPSE herbicidal effect rating [2, 7]: 0.0
- CYPSE herbicidal effect rating [2, 8]: 0.0
- CYPSE herbicidal effect rating [2, 9]: 0.0
- CYPSE herbicidal effect rating [2, 10]: 0.0
- ORYSAT herbicidal effect rating ([3]; Rate 0.0320 kg/ha): 0.0
- ORYSAT herbicidal effect rating ([3]; Rate 0.0620 kg/ha): 0.0
- ORYSAT herbicidal effect rating ([3]; Rate 0.1250 kg/ha): 0.0
- ORYSAT herbicidal effect rating ([3]; Rate 0.2500 kg/ha): 0.0
- ECHORC herbicidal effect rating [4, 7]: 0.0
- ECHORC herbicidal effect rating [4, 8]: 0.0
- ECHORC herbicidal effect rating [4, 9]: 0.0
- ECHORC herbicidal effect rating [4, 10]: 0.0
- SAGPY herbicidal effect rating [5, 7]: 0.0
- SAGPY herbicidal effect rating [5, 8]: 0.0
- SAGPY herbicidal effect rating [5, 9]: 0.0
- SAGPY herbicidal effect rating [5, 10]: 0.0
- CYPIR herbicidal effect rating [6, 7]: 0.0
- CYPIR herbicidal effect rating [6, 8]: 0.0
- CYPIR herbicidal effect rating [6, 9]: 0.0
- CYPIR herbicidal effect rating [6, 10]: 3.0

From patent EP0908457B1, “3-(1,2-benzisothiazol- and isoxazol-5-Y1)-2,4(1H,3H)-pyrimidinedione or thione and 3-(1,2-benzisothiazol- and isoxazol-5-y1)-4(3H)-pyrimidinone or thione herbicidal agents” (BASF AKTIENGESELLSCHAFT, priority 1997, dated 1999)
